{"source": "paper PMC8333425", "about": "“Discovery of a dual Ras and ARF6 inhibitor from a GPCR endocytosis screen” (Nature Communications, 2021)", "key": {"AT1R": {"system": "AT1R", "assay": "Confocal microscopy of YFP-tagged AT1R internalization", "assay_type": "cell-based, human", "settings": "50 μM; AngII", "method": "One day before transfection, cells were seeded in 35-mm glass-bottom dishes (MatTek Corporation) at a density of 1 × 10^5 cells per dish. For the recordings of receptor internalization, HEK293 SL cells were transfected with 2 μg of AT1R-YFP. For the recordings of β-arrestin-2 recruitment to the receptor, HEK293SL cells were transfected with 50 ng of β-arrestin2-YFP and 250 ng of Flag-AT1R or HA-B2R. Forty-eight hours post-transfection, cells were serum starved, preincubated with DMSO (0.1% final concentration) or Rasarfin (50 μM) for 30 min at 37 °C. AT1R-expressing cells were stimulated with angiotensinII (AngII; 100 nM) and B2R-expressing cells were stimulated with bradykinin (BK; 1 μM) for 30 min (receptor-YFP) or 15 min (β-arrestin2-YFP). Cells were imaged with Zeiss LSM-510 and/or LSM-710 laser scanning confocal microscope. To detect YFP, […] and BP 505–550 nm emission filter. Images (2048 × 2048) were collected using a 63x oil immersion lens."}, "[1]": {"system": "β-arrestin2 recruitment to AT1R", "assay": "BRET recruitment of β-arrestin2 to AT1R", "assay_type": "cell-based, human", "settings": "for AngII-promoted BRET, β-arrestin2 (Barr2) recruitment to AT1R: Comp 21 50 μM, individual experiments", "method": "HEK293SL cells were seeded at a density of 7.5 × 10^5 cells per 100-mm dish and 24 h later, transiently transfected as such. For receptor internalization experiments, cells were transfected with 0.12 μg AT1R-RlucII, B2R-RlucII, or β2AR-RlucII and 0.48 μg of either rGFP-CAAX (to assess removal from the PM) or rGFP-FYVE (to assess accumulation in the endosomes). For β-arrestin recruitment assays, cells were transfected with 0.48 μg of receptor-YFP along with 0.12 μg of β-arrestin-RlucII. For β-arrestin/AP-2 binding experiments, cells were transfected with 1 μg Flag-AT1R, 1 μg β2-Adaptin-YFP, and 0.12 μg β-arrestin2-RlucII. For G protein activation, cells were transfected with 3 μg of sp-Flag-AT1R along with either 4.5 μg of the Gαq-polycistronic BRET sensor or 0.24 μg of the Gαi3-RlucII and 0.6 μg of GFP10-Gγ2 and Gβ1 sensors or 0.12 μg PKN-RBD-RlucII and 0.48 μg of rGFP-CAAX. For PKC activation, cells were transfected with 3 μg of sp-Flag-AT1R and 0.18 μg of the PKC sensor. For GTPase activation experiments, cells were transfected with 1 μg Flag-AT1R, 0.48 μg of rGFP-CAAX, and either 0.12 μg of GGA3-PBD-RlucII, PAK-CRIB-RlucII or Raf-RBD-RlucII. For biosensor validation experiments, cells were additionally transfected with 500 ng Flag-K-Ras-WT, Flag-K-Ras-G12V, Flag-K-Ras-SOS-CAAX, HA-ARF6-WT, HA-ARF6-T27N, Myc-Rac1-WT, Myc-Rac1-Q61L or Myc-Rac1-T17N. For PI3K/Akt activation experiments, cells were transfected with 0.48 μg of rGFP-CAAX and 0.12 μg of Akt (PH)-RlucII. After 18 h of transfection, the media was replaced and cells were divided for subsequent experiments. Cells were detached and seeded onto poly-L-ornithine-coated 96-well flat white bottom plates (BrandTech Scientific) at a density of 2.5 × 10^4 cells per well in media. The next day, cells were washed once with Tyrode’s buffer (140 mM NaCl, 2.7 mM KCl, 1 mM CaCl2, 12 mM NaHCO3, 5.6 mM D-glucose, 0.5 mM MgCl2, 0.37 mM NaH2PO4, 25 mM HEPES, pH 7.4) and left in Tyrode’s buffer. For kinetics of β-arrestin recruitment or β-arrestin binding to receptor and AP-2 experiments, cells were serum starved for 30 min, pretreated with 21 (50 µM) or Barbadin (100 µM) for 30 min, stimulated with 100 nM AngII or 1 µM BK and BRET signals were monitored at indicated times using a Victor X Light plate reader (PerkinElmer). Coelenterazine H (final concentration of 5 µM) was added 3–5 min prior to BRET measurements. Filter set was 460/80 nm and 535/30 nm for detecting the RlucII Renilla luciferase (donor) and YFP (acceptor) light emissions, respectively. The BRET ratio was determined by calculating the ratio of the light emitted by YFP over the light emitted by the RlucII. For G protein activation, cells were serum starved, pretreated with compounds for 30 min, stimulated with 100 nM AngII for 2 min (Gαq, Gαi3, and Rho sensors) or 5 min (PKC sensor). For the kinetics of GTPase and PI3K/Akt activation, cells were serum starved, pretreated with 21 (50 µM) or Wortmannin (200 nM) for 30 min, stimulated with ligand (100 nM AngII or 100 ng/ml EGF) and BRET signals were monitored at indicated times. For concentration-response curves, cells were serum-starved, pretreated with various concentrations of compounds for 30 min and stimulated with ligand (100 nM AngII, 1 µM BK, 10 µM Isoproterenol (Iso) or 100 ng/ml EGF) in Tyrode’s buffer for 30 min for receptor internalization, 10 min for ARF6, 2 min for Rac and Rho activation and 5 min for Ras activation and PI3K/Akt activation. BRET signals were monitored using a Synergy2 (BioTek) microplate reader and coelenterazine 400a (final concentrations of 5 µM) added 3–5 min prior to BRET measurements. Filter set was 410/80 nm and 515/30 nm for detecting the RlucII Renilla luciferase (donor) and rGFP/GFP10 (acceptor) light emissions, respectively. The BRET ratio was determined by calculating the ratio of the light emitted by rGFP/GFP10 over the light emitted by the RlucII."}}, "note": "Several values for one entry are separate records, joined by “and”; a condition that tells them apart may be missing. Equal entries are not always repeated."}
{"smiles": "CC(C)C(=O)N1CCN(c2ccc(NC(=O)c3cc4ccccc4o3)cc2Cl)CC1", "note": "[Compound 21]", "values": [{"measurement": "AT1R localization by microscopy", "setting": "AT1R", "result": "remained trapped at the PM"}, {"measurement": "β-arrestin2 recruitment to AT1R at the PM", "setting": "[1]; 50 μM", "result": "did not preclude"}, {"measurement": "AngII-promoted BRET, β-arrestin2 (Barr2) recruitment to AT1R", "setting": "[1]; time 0 min", "result": 0}, {"measurement": "AngII-promoted BRET, β-arrestin2 (Barr2) recruitment to AT1R", "setting": "[1]; time 5 min", "result": "0.1545 and 0.1824 and 0.1119"}, {"measurement": "AngII-promoted BRET, β-arrestin2 (Barr2) recruitment to AT1R", "setting": "[1]; time 10 min", "result": "0.1572 and 0.2061 and 0.1651"}, {"measurement": "AngII-promoted BRET, β-arrestin2 (Barr2) recruitment to AT1R", "setting": "[1]; time 15 min", "result": "0.1598 and 0.2035 and 0.1848"}, {"measurement": "AngII-promoted BRET, β-arrestin2 (Barr2) recruitment to AT1R", "setting": "[1]; time 30 min", "result": "0.165 and 0.1904 and 0.1659"}, {"measurement": "AngII-promoted BRET, β-arrestin2 (Barr2) recruitment to AT1R", "setting": "[1]; time 60 min", "result": "0.1705 and 0.209 and 0.1941"}]}
